pKi: −log10 of the molar value.
Key:
leukotriene B4 = assay: Guinea Pig Bronchoconstriction, In Vivo (leukotriene B4 challenge); design: species or system guinea pig (Hartley strain); conditions: 0.1 mg/kg test compound dose p.o., 2 hr prior to leukotriene B4 (200 μg/kg i.v.); propranolol 0.1 mg/kg i.v.; male guinea pigs
Method: Guinea Pig Bronchoconstriction, In Vivo
Male guinea pigs (Hartley strain), weighing 300 to 500 g are anesthetized with urethane (2 g/kg) intraperitoneally and a polyethylene cannula is inserted into the jugular vein for drug administration. Tracheal pressure is recorded from a cannula inserted into the trachea and connected to a Gould P231D pressure transducer. After surgical preparation of the animals, a period of time is allowed for pulmonary functions to stabilize. Animals are then paralyzed with succinylcholine (1.2 mg/kg, i.v.) and mechanically respirated (Harvard rodent respirator) at 40 breaths/minute and 2.5 cc tidal volume. The test compound is administered p.o., 2 hr prior to leukotriene B4 administration. Propranolol (0.1 mg/kg) is administered intravenously 5 min prior to leukotriene B4 administration. Animals are then challenged with an intermediate constrictory dose of leukotriene B4 (200 μg/kg), delivered intravenously.
The change (cm H2 O) between pre and peak ventilatory pressure readings is averaged for 6 control and 6 drug treated animals. The percent inhibition is calculated from the formula:
((Control-Drug Treated)/Control)×100
When representative compounds of formulas A, B and C of the invention were utilized as the test compounds, the following results were obtained: […]

LTB4 Receptor = biological target: T1, LTB4 Receptor (Homo sapiens, UniProt Q15722); assay: LTB4 Receptor Binding Assay (inhibition of 3H-LTB4 binding, isolated human neutrophils); conditions: 0.5 nM 3H-LTB4, 45 minutes on ice, Cheng-Prusoff, read-out: Ki, human neutrophil cells (inhibition of 3H-LTB4 binding)
T1 construct: Isolated human neutrophils in Gey's salt solution; endogenous in cells; host or cells: isolated human neutrophils
T1 sequence (Q15722 whole entry): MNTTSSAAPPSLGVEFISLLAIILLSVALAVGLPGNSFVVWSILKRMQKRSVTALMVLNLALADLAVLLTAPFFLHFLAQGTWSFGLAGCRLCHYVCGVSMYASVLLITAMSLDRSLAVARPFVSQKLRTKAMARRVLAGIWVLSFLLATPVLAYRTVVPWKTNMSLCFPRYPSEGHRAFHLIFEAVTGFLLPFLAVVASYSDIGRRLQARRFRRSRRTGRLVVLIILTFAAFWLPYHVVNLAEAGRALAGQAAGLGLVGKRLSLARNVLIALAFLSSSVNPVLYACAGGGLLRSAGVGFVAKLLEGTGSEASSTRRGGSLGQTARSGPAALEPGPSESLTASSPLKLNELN
Method: LTB4 Receptor Binding Assay
Binding assays can be performed in microliter wells. Isolated human neutrophils in Gey's salt solution are incubated on ice for 45 minutes with 0.5 nM ^3 H-LTB4 in the presence or absence of test compounds. Assays are terminated by adding 12 ml of ice cold 50 mM Tris buffer (pH 7.4) followed by rapid filtration under vacuum through GF/C filters. Radioactivity is determined by scintillation counting. Non specific binding is defined as the binding not displaced by 100 fold excess of unlabelled LTB4. Specific binding is defined as the difference between total binding and non-specific binding. Non linear analysis of the binding data is performed using LIGAND (Munson and Rodbard, 1980). Ki (Inhibition Constant) values were determined using the Cheng-Prusoff relationship (Cheng and Prusoff, 1973).
When representative compounds of formulas A, B or C of the invention were tested, the results as set forth in Table I and expressed as inhibition of ^3 H-LTB4 binding were obtained.

| pKi (LTB4 Receptor) | SMILES | % inhibition (of leukotriene B4-induced bronchoconstriction) (leukotriene B4) [%] |
| --- | --- | --- |
| 9.00 | O=C(O)CCCOc1cccc(CCCCCCOc2ccc3c(c2CCCc2ccccc2)OCCC3=O)c1CCC(=O)O [2-(3-Carboxypropoxy)-6-[6-[[3,4-dihydro-4-oxo-8-(3-phenylpropyl)-2H-1-benzopyran-7-yl]oxy]hexyl]benzenepropanoic Acid] | 67 |
| 8.70 | O=C(O)CCCOc1cccc(CCCCCCOc2ccc3c(c2CCCc2ccccc2)CCCC3=O)c1CCC(=O)O [2-(3-Carboxypropoxy)-6-[6-[[5,6,7,8-tetrahydro-5-oxo-1-(3-phenylpropyl)-2-naphthalenyl]oxy]hexyl]benzenepropanoic Acid] | 78 |
| 9.00 | O=C(O)CCCOc1cccc(CCCCCCOc2ccc3c(c2C/C=C/c2ccccc2)CCCC3=O)c1CCC(=O)O [(E)-2-(3-Carboxypropoxy)-6-[6-[[5,6,7,8-tetrahydro-5-oxo-1-(3-phenyl-2-propenyl)-2-naphthalenyl]oxy]hexyl]benzenepropanoic Acid] | 64 |
